Counter-ions that a name gives are not always drawn.
What was measured:
Format in all cases: cell-based
human TLR9 = target: T1, human TLR9 (Homo sapiens, UniProt Q9NR96); assay: TLR9 inhibition reporter assay (HEK-Blue cells, SEAP reporter, ODN2006 stimulation); conditions: HEK-Blue cells overexpressing human TLR9, SEAP reporter, ODN2006 5 nM
T1 construct: host or cells: HEK-Blue cells
T1 sequence (Q9NR96 26-1032): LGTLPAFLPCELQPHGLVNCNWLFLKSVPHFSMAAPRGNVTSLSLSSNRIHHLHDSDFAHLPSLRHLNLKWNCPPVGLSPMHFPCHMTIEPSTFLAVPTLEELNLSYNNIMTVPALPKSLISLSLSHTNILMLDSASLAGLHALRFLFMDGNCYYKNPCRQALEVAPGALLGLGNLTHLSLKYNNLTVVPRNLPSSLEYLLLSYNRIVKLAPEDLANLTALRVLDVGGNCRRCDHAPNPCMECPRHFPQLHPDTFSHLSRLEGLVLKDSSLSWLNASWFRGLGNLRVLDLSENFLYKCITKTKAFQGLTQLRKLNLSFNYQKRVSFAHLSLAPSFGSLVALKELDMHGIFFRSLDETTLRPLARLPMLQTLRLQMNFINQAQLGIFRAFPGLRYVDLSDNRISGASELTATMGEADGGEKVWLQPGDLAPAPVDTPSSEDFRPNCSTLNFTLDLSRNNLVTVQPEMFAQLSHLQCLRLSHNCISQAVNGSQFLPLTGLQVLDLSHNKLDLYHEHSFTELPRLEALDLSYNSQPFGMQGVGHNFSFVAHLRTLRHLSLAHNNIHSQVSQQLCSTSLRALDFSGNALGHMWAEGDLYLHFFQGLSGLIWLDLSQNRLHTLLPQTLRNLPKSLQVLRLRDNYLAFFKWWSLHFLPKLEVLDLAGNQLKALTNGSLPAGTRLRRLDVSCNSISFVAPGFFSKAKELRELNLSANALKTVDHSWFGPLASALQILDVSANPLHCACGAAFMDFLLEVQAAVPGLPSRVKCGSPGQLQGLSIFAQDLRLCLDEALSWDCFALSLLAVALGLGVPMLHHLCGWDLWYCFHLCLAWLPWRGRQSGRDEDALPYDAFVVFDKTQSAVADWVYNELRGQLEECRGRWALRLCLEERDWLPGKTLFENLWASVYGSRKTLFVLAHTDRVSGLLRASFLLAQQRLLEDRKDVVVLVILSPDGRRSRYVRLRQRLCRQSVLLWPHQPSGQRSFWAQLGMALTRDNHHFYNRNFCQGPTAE
Procedure, shortened: (§1)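 HEK-Blue cells overexpressing human TLR7, TLR8 or TLR9, with an NF-κB/AP-1-driven SEAP reporter, pre-treated 30 min at room temperature with compound (0.05 nM-50 μM final). Stimulated with 7.5 μM gardiquimod (TLR7), 15.9 μM R848 (TLR8) or 5 nM ODN2006 (TLR9), then 22 h at 37° C. SEAP read with HEK-Blue Detection; % inhibition set against agonist+DMSO and known-inhibitor wells.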

human TLR8 = target: T2, human TLR8 (Homo sapiens, UniProt Q9NR97); assay: TLR8 inhibition reporter assay (HEK-Blue cells, SEAP reporter, R848 stimulation); conditions: HEK-Blue cells overexpressing human TLR8, SEAP reporter, R848 15.9 μM
T2 construct: host or cells: HEK-Blue cells
T2 sequence (Q9NR97 27-1041): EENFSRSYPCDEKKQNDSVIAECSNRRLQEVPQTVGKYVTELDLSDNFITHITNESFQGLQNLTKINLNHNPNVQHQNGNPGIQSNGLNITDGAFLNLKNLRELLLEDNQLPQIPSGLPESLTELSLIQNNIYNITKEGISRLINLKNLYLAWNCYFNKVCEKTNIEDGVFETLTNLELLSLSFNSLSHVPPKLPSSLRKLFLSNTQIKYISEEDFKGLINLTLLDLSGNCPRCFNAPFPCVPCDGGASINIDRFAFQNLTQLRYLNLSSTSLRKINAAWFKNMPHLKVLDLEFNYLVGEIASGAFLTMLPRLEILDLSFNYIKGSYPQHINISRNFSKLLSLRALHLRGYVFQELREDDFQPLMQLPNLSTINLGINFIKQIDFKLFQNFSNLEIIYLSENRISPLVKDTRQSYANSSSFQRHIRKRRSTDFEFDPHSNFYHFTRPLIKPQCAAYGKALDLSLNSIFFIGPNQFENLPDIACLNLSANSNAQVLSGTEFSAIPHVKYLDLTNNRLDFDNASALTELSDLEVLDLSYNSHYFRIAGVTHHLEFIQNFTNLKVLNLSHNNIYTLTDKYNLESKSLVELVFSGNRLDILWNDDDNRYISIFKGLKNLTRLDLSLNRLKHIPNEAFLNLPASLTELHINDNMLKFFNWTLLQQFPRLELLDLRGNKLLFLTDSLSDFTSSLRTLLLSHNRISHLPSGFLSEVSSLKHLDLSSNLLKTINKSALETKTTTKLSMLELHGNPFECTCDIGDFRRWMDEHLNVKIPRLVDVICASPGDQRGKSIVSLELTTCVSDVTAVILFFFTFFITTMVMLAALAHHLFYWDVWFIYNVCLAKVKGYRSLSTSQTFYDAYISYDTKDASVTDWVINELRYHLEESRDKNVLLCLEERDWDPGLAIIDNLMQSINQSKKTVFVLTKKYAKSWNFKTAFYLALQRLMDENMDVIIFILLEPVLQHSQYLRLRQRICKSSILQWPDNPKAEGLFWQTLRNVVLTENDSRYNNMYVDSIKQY
Procedure, shortened: as §1

human TLR7 = target: T3, human TLR7 (Homo sapiens, UniProt Q9NYK1); assay: TLR7 inhibition reporter assay (HEK-Blue cells, SEAP reporter, gardiquimod stimulation); conditions: HEK-Blue cells overexpressing human TLR7, SEAP reporter, gardiquimod 7.5 μM
T3 construct: host or cells: HEK-Blue cells
T3 sequence (Q9NYK1 27-1049): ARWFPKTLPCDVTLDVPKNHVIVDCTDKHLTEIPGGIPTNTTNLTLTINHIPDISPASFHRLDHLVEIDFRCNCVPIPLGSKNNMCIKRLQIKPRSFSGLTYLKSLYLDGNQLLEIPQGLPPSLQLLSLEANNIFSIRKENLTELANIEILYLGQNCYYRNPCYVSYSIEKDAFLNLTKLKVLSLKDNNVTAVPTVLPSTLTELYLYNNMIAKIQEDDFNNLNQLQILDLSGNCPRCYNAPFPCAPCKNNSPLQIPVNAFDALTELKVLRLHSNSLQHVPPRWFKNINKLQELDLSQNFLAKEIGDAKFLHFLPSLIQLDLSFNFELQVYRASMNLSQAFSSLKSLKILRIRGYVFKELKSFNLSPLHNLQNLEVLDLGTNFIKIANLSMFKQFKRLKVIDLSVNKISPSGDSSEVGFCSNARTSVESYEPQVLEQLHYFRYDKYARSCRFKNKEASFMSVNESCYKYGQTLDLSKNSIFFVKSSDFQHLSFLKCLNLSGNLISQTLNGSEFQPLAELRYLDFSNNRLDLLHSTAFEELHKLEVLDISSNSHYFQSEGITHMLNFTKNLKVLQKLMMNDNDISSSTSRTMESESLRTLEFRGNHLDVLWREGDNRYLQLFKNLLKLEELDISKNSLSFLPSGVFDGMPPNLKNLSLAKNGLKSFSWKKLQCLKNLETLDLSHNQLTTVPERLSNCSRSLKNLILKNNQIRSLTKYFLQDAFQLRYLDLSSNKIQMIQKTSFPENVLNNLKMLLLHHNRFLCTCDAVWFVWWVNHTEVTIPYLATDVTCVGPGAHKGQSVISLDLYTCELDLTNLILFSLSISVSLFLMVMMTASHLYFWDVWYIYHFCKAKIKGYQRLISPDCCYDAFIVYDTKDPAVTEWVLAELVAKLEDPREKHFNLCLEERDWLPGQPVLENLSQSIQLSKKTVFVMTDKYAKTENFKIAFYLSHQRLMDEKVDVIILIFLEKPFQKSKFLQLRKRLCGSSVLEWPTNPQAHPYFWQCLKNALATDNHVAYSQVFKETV
Procedure, shortened: as §1

SMILES	IC50 (human TLR9)	IC50 (human TLR8)	IC50 (human TLR7)
COc1cc(-c2[nH]nc(C(=O)NC3CCN(CC4CCOCC4)CC3)c2CC(F)(F)F)cn2ncnc12 [Example 197]	13.1 µM	0.00208 µM	0.00535 µM
Cc1cc(-c2[nH]nc(C3CCC(NCCN(C)C)CC3)c2C(C)C)cn2ncnc12 (single isomer, unassigned) [Example 285]	> 50 µM	0.00271 µM	0.0077 µM
CCN(C)C1CCC(c2n[nH]c(-c3cc(C)c4ncnn4c3)c2C(C)C)CC1 (single isomer, unassigned) [Example 282]	> 50 µM	0.00533 µM	0.0298 µM
COc1cc(-c2[nH]nc(-c3cnc(C4CCN(CC(C)C)CC4)cn3)c2C(C)C)cn2ncnc12 [Example 379]	28 µM	0.0229 µM	0.0557 µM
COc1cc(-c2[nH]nc(-c3ccc4c(c3)CCNC4)c2C(C)C)cn2ncnc12 [Example 234]	> 50 µM	0.0598 µM	0.0151 µM
CCC(CC)N[C@H]1CC[C@H](NC(=O)c2n[nH]c(-c3cc(C)c4ncnn4c3)c2C(C)C)CC1 [Example 119]	> 50 µM	0.0542 µM	0.00333 µM
Cc1cc(-c2[nH]nc(C(=O)N(C)C3CCN(C)C3)c2C(C)C)cn2ncnc12 (stereo not drawn) [Example 25]	0.447 µM	0.0103 µM	0.0256 µM
CNC(=O)CN1CCC(NC(=O)c2n[nH]c(-c3cc(OC)c4ncnn4c3)c2CC(F)(F)F)CC1 [Example 205, 5-(8-methoxy-[1,2,4]triazolo[1,5-a]pyridin-6-yl)-N-(1-(2-(methylamino)-2-oxoethyl)piperidin-4-yl)-4-(2,2,2-trifluoroethyl)-1H-pyrazole-3-carboxamide]	21.5 µM	0.00233 µM	0.00666 µM
Cc1cc(-c2[nH]nc(C(=O)N(C)Cc3cccnc3)c2C(C)C)cn2ncnc12 [Example 17]	3.43 µM	0.00827 µM	0.00808 µM
Cc1cc(-c2[nH]nc(C(=O)N[C@H]3CC[C@@H](NCc4cccnc4)CC3)c2C(C)C)cn2ncnc12 [Example 95]	43.2 µM	0.0238 µM	0.0117 µM
Cc1cc(-c2[nH]nc(-c3ccc(N4CC(NC(C)C)C4)cc3)c2C(C)C)cn2ncnc12 [Example 409]	9.76 µM	0.345 µM	0.0482 µM
Cc1cc(-c2[nH]nc(-c3cccnc3)c2C(C)C)cn2ncnc12 [Example 224]	9.03 µM	0.00063 µM	0.00056 µM
Cc1cc(-c2[nH]nc(-c3ccc4c(c3)CCNC4)c2C(C)C)cn2ncnc12 [Example 213, 6-(4-isopropyl-5-(8-methyl-[1,2,4]triazolo[1,5-a]pyridin-6-yl)-1H-pyrazol-3-yl)-1,2,3,4-tetrahydroisoquinoline, HCl]	25.5 µM	0.00341 µM	0.00464 µM
Cc1cc(-c2[nH]nc(C3CCC(N4CCOCC4)CC3)c2C(C)C)cn2ncnc12 (single isomer, unassigned) [Example 290]	22.1 µM	0.00109 µM	0.00856 µM
Cc1cc(-c2[nH]nc(C(=O)NC3CCN(CC4CCOCC4)CC3)c2C(C)C)cn2ncnc12 [Example 77]	3.27 µM	0.0215 µM	0.00203 µM
Cc1cc(-c2[nH]nc(-c3cncc(N(C)C)c3)c2C(C)C)cn2ncnc12 [Example 238]	5.37 µM	0.00596 µM	0.0054 µM
Cc1cc(-c2[nH]nc(-c3ncc(C4CCN(CC(C)(C)C)CC4)cn3)c2C(C)C)cn2ncnc12 [Example 371]	> 50 µM	0.0294 µM	0.0721 µM
Cc1cc(-c2[nH]nc(-c3ncc(C4CCN(C(C)C)CC4)cn3)c2C(C)C)cn2ncnc12 [Example 370]	6.44 µM	0.00138 µM	0.0124 µM
Cc1cc(-c2[nH]nc(C(=O)NC3CCC(NCC(C)(C)C)CC3)c2C(C)C)cn2ncnc12 (stereo not drawn) [Example 131]	10.9 µM	0.0326 µM	0.00748 µM
CCN1CCC(c2ccc(-c3n[nH]c(-c4cc(C)c5ncnn5c4)c3C(C)C)nc2)CC1 [Example 366]	6.26 µM	> 3.13 µM	> 3.13 µM
Cc1cc(-c2[nH]nc(C(=O)NCC3CN(C(C)C)CCO3)c2C(C)C)cn2ncnc12 (stereo not drawn) [Example 135]	22.4 µM	0.0389 µM	0.0068 µM
Cc1cc(-c2[nH]nc(C(=O)NCC3CN(CC4(C)COC4)CCO3)c2C(C)C)cn2ncnc12 (stereo not drawn) [Example 137]	6.73 µM	0.0408 µM	0.0034 µM
CC(C)c1c(C(=O)NC2CCN(C(C)C)CC2)n[nH]c1-c1ccnc2[nH]ncc12 [Example 35]	4.35 µM	0.00079 µM	0.00277 µM
Cc1cc(-c2[nH]nc(C3CCC(N(C)C(=O)C4CN(C(C)C)C4)CC3)c2C(C)C)cn2ncnc12 (single isomer, unassigned) [Example 304]	35.6 µM	0.0192 µM	0.0082 µM
